Entries after “also recorded” stand apart in the source; their conditions may differ.
These compounds were tested on human pluripotent stem cells (assay: HD-DoE #1: 8-factor experiment, gene expression after 3-day treatment with effectors). Conditions: 8-factor model.
Type: cell-based
Text: (§1) This example utilizes a method of High-Dimensional Design of Experiments (HD-DoE), as previously described in Bukys et al. (2020) Iscience 23:101346. The method employs computerized design geometries to simultaneously test multiple process inputs and offers mathematical modeling of a deep effector/response space. The method allows for finding combinatorial signaling inputs that control a complex process, such as during cell differentiation. It allows testing of multiple plausible critical process parameters, as such parameters impact output responses, such as gene expression. Because gene expression provides hallmark features of the phenotype of, for example, a human cell, the method can be applied to identify, and understand, which signaling pathways control cell fate. In the current example, the HD-DOE method was applied with the intent to find conditions for induction of oligodendrocyte progenitor-expressed genes, directly from the pluripotent stem cell state.
(§2) Specifically, to develop a novel method to generate oligodendrocytes, the impact of agonists and antagonists of multiple signaling pathways (herein called effectors) were tested on expression of two sets of 53 pre-selected genes after a 3-day treatment. These effectors are small molecules that are commonly used during stepwise differentiation of stem cells to specific fates. Choice of the effectors were based on current literature on neural induction in anterior ectoderm and differentiation of stem cells to oligodendrocytes.
To test the effectors, experiments with at least 8 factors were designed that can assess the response of cells to 48 or more different combinations of effectors in a range of concentrations. To analyze the models, we focused on expression of genes expressed during early development of anterior neuroectoderm and oligodendrocytes including NKX2-2, OLIG2, OLIG1, and PDGFRA. The impact of each effector on gene expression level is defined by a parameter called factor contribution that is calculated for each effector during the modeling.
This model tested 8 factors: PD0325901, MK2206, TTNPB, SC79, MHY1485, ZM336372, AGN193109 and AZD3147.

Structure (SMILES)	effect on expression of targeted oligodendrocyte genes (NKX2-2, OLIG2)
O=[N+]([O-])c1ccc(Nc2nc(N3CCOCC3)nc(N3CCOCC3)n2)cc1 [MHY1485]	significant positive effect
NC1(c2ccc(-c3nc4ccn5c(=O)[nH]nc5c4cc3-c3ccccc3)cc2)CCC1 [MK2206]	negative effect
O=C(NOC[C@H](O)CO)c1ccc(F)c(F)c1Nc1ccc(I)cc1F [PD0325901]	negatively impacting; also recorded: negative effect
CCOC(=O)C1=C(N)Oc2ccc(Cl)cc2C1C(C#N)C(=O)OCC (centres unmarked) [SC79]	significant positive effect
C/C(=C\c1ccc(C(=O)O)cc1)c1ccc2c(c1)C(C)(C)CCC2(C)C [TTNPB]	significant positive effect
Cc1ccc(NC(=O)c2cccc(N(C)C)c2)cc1NC(=O)c1ccc(O)cc1 [ZM336372]	negatively impacting

What follows are compounds tested on human pluripotent stem cells (assay: HD-DoE #2: 13-factor experiment, differentiation toward anterior neuroectoderm (OTX2, FEZF2 expression)). Conditions: 13-factor model.
Type: cell-based
Text: as §1, §2
To further enhance the conditions for oligodendrocyte differentiation from pluripotency, we performed an additional HD-DoE experiment. We obtained additional gene regulatory models that were used for preparation of a differentiation protocol. The basis of this was a 13-factor HD-DoE experiment with focus on initiation of differentiation of cells toward anterior neuroectoderm. In this model, we focused on expression of FEZF2 and OTX2.

Structure (SMILES)	effect on expression of FEZF2 (dynamic profiling analysis)	impact on expression level of OTX2 (dynamic profiling analysis)
c1ccc2c(Oc3nc(Nc4ccc(N5CCOCC5)cc4)c4ncn(C5CCCCC5)c4n3)cccc2c1 [Purmorphamine]	significant positive effects	no negative impact
Oc1nc(-c2ccc(C(F)(F)F)cc2)nc2c1CSCC2 [XAV939]	significant positive effects	no negative impact

Same assay, conditions: 13-factor model of high expression of OTX2

Structure (SMILES)	contribution to expression of OTX2 (in words)
Cc1c[nH]c(-c2cnc(NCCNc3ccc(C#N)cn3)nc2-c2ccc(Cl)cc2Cl)n1 [CHIR99021]	positive contribution
COc1ccc2c(c1)c(C1=C(c3c[nH]c4ccccc34)C(=O)NC1=O)cn2CCCN(C)C [Go6983]	positive contribution
c1ccc2c(-c3cnn4cc(-c5ccc(N6CCNCC6)cc5)cnc34)ccnc2c1 [LDN193189]	positive contribution
O=C(NOC[C@H](O)CO)c1ccc(F)c(F)c1Nc1ccc(I)cc1F [PD0325901]	positive contribution

— patent US12385009B2, “Methods and compositions for generating oligodendrocyte progenitor cells” (Trailhead Biosystems Inc., priority 2021, dated 2025)
